For one series, the target named is aldehyde oxidase (Homo sapiens, UniProt Q06278). The following applies: for % of parent compd remaining after 45 min: human, cytosol, 0.75 h, 1 µM.
A short description of series [1]: in vitro. Particulars: mouse, microsomes.
A short description of series [2]: in vitro. The following applies: rat, microsomes.
Series [3] is described as follows: in vitro. The following applies: human, microsomes.
For series [4] the following is noted: mouse.
The next series deals with WNT signaling. Kind of series: cells. The following applies: 7dF3, read-out: 7dF3 IC50.
Another series concerns Caco-2. Particulars: human.

A value given as a limit tells only on which side of the number the result lay.

One may read the microsomal CLint as the rate of metabolic loss divided by the concentration. A low value points to slow turnover. A word on the Vss: it is the apparent volume that relates the amount in the body to the concentration in plasma or blood. Read a high Vss as extensive tissue distribution. As a reminder, the IC50 is the concentration at which inhibition is half-maximal.

Sequence of aldehyde oxidase (Q06278 whole entry): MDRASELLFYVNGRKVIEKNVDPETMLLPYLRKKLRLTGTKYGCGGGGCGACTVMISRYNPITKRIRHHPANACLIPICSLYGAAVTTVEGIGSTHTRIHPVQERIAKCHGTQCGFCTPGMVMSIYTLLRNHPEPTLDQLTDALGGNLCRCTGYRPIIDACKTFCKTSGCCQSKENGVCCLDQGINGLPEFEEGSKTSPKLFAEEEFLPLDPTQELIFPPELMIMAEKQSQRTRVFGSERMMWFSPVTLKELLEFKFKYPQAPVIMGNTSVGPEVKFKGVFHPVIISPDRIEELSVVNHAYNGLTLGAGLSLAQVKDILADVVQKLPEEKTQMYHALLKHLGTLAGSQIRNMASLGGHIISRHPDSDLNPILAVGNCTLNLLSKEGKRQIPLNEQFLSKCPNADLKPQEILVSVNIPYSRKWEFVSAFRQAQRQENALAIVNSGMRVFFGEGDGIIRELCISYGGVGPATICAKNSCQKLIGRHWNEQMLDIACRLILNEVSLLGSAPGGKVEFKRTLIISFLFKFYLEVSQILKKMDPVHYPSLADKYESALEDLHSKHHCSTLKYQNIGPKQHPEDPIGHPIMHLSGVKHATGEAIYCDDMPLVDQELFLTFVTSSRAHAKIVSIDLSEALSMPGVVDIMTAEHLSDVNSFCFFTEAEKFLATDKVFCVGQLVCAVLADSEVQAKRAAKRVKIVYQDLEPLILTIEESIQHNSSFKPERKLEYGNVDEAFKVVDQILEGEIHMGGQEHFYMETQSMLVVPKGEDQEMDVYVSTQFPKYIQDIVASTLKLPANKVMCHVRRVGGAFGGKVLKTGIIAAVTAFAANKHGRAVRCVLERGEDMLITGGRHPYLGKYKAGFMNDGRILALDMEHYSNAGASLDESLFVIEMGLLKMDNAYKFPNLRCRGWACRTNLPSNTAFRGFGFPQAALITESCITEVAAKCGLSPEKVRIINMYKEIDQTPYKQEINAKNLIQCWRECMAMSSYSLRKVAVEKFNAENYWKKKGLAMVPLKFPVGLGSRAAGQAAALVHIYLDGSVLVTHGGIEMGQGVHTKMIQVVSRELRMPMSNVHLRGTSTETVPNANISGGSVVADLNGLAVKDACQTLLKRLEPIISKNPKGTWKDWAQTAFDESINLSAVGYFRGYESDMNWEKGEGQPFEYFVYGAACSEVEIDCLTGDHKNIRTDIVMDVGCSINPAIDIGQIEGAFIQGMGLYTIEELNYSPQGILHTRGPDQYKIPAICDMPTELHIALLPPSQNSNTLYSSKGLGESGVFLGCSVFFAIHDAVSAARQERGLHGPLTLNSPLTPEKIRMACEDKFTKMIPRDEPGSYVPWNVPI

As for `COC1CN(C(=O)c2ccc3cncc(-c4ccc(-c5cnn(C)c5)cc4)c3n2)C1` [Compound 13], the “AO substrate (Enzyme assay)” value on aldehyde oxidase is “Yes”. Moreover, at aldehyde oxidase, the “% of parent compd remaining after 45 min” value amounted to 0%. Besides, the values for the intrinsic metabolic clearance (microsomal CLint) at 1 µM in the series “in vitro [1]”, in the series “in vitro [2]” and in the series “in vitro [3]” were 95 µL/min/mg, 327 µL/min/mg and 35 µL/min/mg, respectively.
With `Cn1cc(-c2ccc(-c3cncc4ccc(C(=O)N5CCNCC5)nc34)cc2)cn1` [Compound 17], the volume of distribution (Vss) in series [4] (Balb/C, in vivo) came out at 5.8 L/kg. Also, the in vivo clearance entry in series [4] was “exceeded liver blood flow”. The values for the intrinsic metabolic clearance (microsomal CLint) at 1 µM in the series “in vitro [1]”, in “in vitro [2]” and in “in vitro [3]” were 15 µL/min/mg, 525 µL/min/mg and 36 µL/min/mg, respectively.
For the molecule `CNC(=O)c1ccc2cncc(-c3ccc(-c4cnn(C)c4)cc3)c2c1` [Compound 27], on aldehyde oxidase, the “% of parent compd remaining after 45 min” value was 0%. Moreover, the microsomal CLint at 1 µM worked out at 275 µL/min/mg in “in vitro [1]” and 27 µL/min/mg in “in vitro [3]”.
Turning to `Cn1cc(-c2ccc(-c3cncc4ccc(C(=O)NC5CC5)cc34)cc2)cn1` [Compound 28], the “AO substrate (Enzyme assay)” value at aldehyde oxidase is “Yes”. Moreover, the intrinsic metabolic clearance (microsomal CLint) at 1 µM came to 141 µL/min/mg in the series “in vitro [1]”, 98 µL/min/mg in the series “in vitro [2]” and 31 µL/min/mg in “in vitro [3]”.
On to `COC1CN(C(=O)c2ccc3cncc(-c4ccc(-c5cnn(C)c5)cc4)c3c2)C1` [Compound 29], for which the “AO substrate (Enzyme assay)” value at aldehyde oxidase is given as “Yes”. The “% of parent compd remaining after 45 min” value at aldehyde oxidase stood at 1%. Also, the figures for the intrinsic clearance (microsomal CLint) at 1 µM in the series “in vitro [1]”, in the series “in vitro [2]” and in “in vitro [3]” were 403 µL/min/mg, 337 µL/min/mg and 56 µL/min/mg, respectively.
With `Cn1cc(-c2ccc(-c3cncc4ccc(C(=O)N5CC(F)(F)C5)cc34)cc2)cn1` [Compound 30], the “% of parent compd remaining after 45 min” value at aldehyde oxidase amounted to 0%. The values for the intrinsic clearance (microsomal CLint) at 1 µM in the series “in vitro [1]”, in “in vitro [2]” and in the series “in vitro [3]” were 321 µL/min/mg, 207 µL/min/mg and 470 µL/min/mg, respectively.
Take `CC(=O)Nc1ccc2cncc(-c3ccc(-c4cnn(C)c4)cc3)c2c1` [Compound 31]: at aldehyde oxidase, the “AO substrate (Enzyme assay)” value is “Yes”. Further, the intrinsic clearance (microsomal CLint) at 1 µM in the series “in vitro [1]” came to 200 µL/min/mg; in “in vitro [2]”, 90 µL/min/mg; in the series “in vitro [3]” it was 26 µL/min/mg.
For the molecule `Cn1cc(-c2ccc(-c3cncc4ccc(-c5ncco5)cc34)cc2)cn1` [Compound 32], on aldehyde oxidase, the “% of parent compd remaining after 45 min” value came out at 3%. Moreover, the intrinsic clearance (microsomal CLint) at 1 µM was 129 µL/min/mg in “in vitro [1]”, 96 µL/min/mg in “in vitro [2]” and 81 µL/min/mg in the series “in vitro [3]”.
With `Cn1cc(-c2ccc(-c3cncc4ccc(N5CCOC5=O)cc34)cc2)cn1` [Compound 34], the “AO substrate (Enzyme assay)” value at aldehyde oxidase is recorded as “Yes”. Moreover, the figures for the microsomal CLint at 1 µM in “in vitro [1]”, in the series “in vitro [2]” and in “in vitro [3]” were 380 µL/min/mg, 102 µL/min/mg and 66 µL/min/mg, respectively.
With `CNC(=O)c1ccc2c(N)ncc(-c3ccc4c(c3)CS(=O)(=O)N4)c2n1` [Compound 37], on aldehyde oxidase, the “% of parent compd remaining after 45 min” value was found to be 100%. In the series with WNT signaling, the half-inhibitory concentration (IC50) worked out at 9600 ± 2430 nM.
The corresponding values for `COC1CN(C(=O)c2ccc3cncc(-c4ccc(-c5cnn(CC(C)(C)O)c5)cc4)c3n2)C1` [Compound 38] are 0% and 2.8 ± 0.7 nM.
The corresponding values for `COC1CN(C(=O)c2ccc3cncc(-c4ccc5c(cnn5CC(C)(C)O)c4)c3n2)C1` [Compound 39] are 0% and 225 ± 76 nM.
The corresponding values for `COC1CN(C(=O)c2ccc3cncc(-c4ccc5nn(CC(C)(C)O)cc5c4)c3n2)C1` [Compound 40] are 0% and 17.9 ± 5.5 nM.
`COC1CN(C(=O)c2ccc3cncc(-c4ccc(-c5cnn(CC(C)(C)O)c5)cc4)c3c2)C1` [Compound 41]: the “% of parent compd remaining after 45 min” value at aldehyde oxidase is reported as 0%. In addition, the IC50 with WNT signaling came out at 13.2 ± 15.2 nM.
For `CC(C)(O)Cn1cc(-c2ccc(-c3cncc4ccc(C(N)=O)cc34)cc2)cn1` [Compound 42], the “% of parent compd remaining after 45 min” value at aldehyde oxidase is given as 7%. Besides, the half-inhibitory concentration (IC50) in the series with WNT signaling amounted to 0.6 ± 0.2 nM.
The corresponding values for `COC1CN(C(=O)c2ccc3cncc(-c4ccc5c(cnn5CC(C)(C)O)c4)c3c2)C1` [Compound 43] are 2% and 921 ± 148 nM.
In the same order, the values of `COC1CN(C(=O)c2ccc3cncc(-c4ccc5nn(CC(C)(C)O)cc5c4)c3c2)C1` [Compound 44] are 0% and 92.7 ± 41.1 nM.
On to `CNC(=O)c1ccc2c(OC)ncc(-c3ccc4c(c3)CS(=O)(=O)N4)c2n1` [Compound 45], for which, in the series on WNT signaling, the IC50 was above 30000 nM.
Turning to `Cn1cc(-c2ccc(-c3cnc(N)c4ccc(C(=O)N5CC(C)(F)C5)nc34)cc2)cn1` [Compound 55], the “Caco-2 ER” value in the series with Caco-2 is given as 3.4. Also, in the series on Caco-2, the “Caco-2 PappA-B” value is recorded as 27.6 × 10^–6 cm/s. Also, the results for the microsomal CLint at 1 µM in the series “in vitro [1]”, in the series “in vitro [2]” and in the series “in vitro [3]” were 125 µL/min/mg, 24 µL/min/mg and 20 µL/min/mg, respectively.
As to `Cn1cc(-c2ccc(-c3cnc(N)c4ccc(C(=O)N5CCCC5)nc34)cc2)cn1` [Compound 56], the “Caco-2 ER” value in the series on Caco-2 is 5.0. Further, the “Caco-2 PappA-B” value with Caco-2 is given as 30 × 10^–6 cm/s. The figures for the microsomal CLint at 1 µM in the series “in vitro [1]”, in the series “in vitro [2]” and in “in vitro [3]” were 81 µL/min/mg, 63 µL/min/mg and 30 µL/min/mg, respectively.
Take `Cn1cc(-c2ccc(-c3cnc(N)c4ccc(C(=O)N5CCC5)cc34)cc2)cn1` [Compound 58]: in the series with Caco-2, the “Caco-2 ER” value is given as 5.5 and the “Caco-2 PappA-B” value was 27.2 × 10^–6 cm/s. In the series “in vitro [1]”, this molecule displayed a microsomal CLint at 1 µM of 23 µL/min/mg. In the series “in vitro [2]”, this molecule returned a microsomal CLint at 1 µM of 11 µL/min/mg. In “in vitro [3]”, this molecule registered an intrinsic clearance (microsomal CLint) below 10 µL/min/mg.
With `COC1(C)CN(C(=O)c2ccc3c(N)ncc(-c4ccc(-c5cnn(C)c5)cc4)c3c2)C1` [Compound 60], the “Caco-2 ER” value in the series on Caco-2 is listed as 7.2. In addition, in the series with Caco-2, the “Caco-2 PappA-B” value is reported as 25.2 × 10^–6 cm/s. The intrinsic metabolic clearance (microsomal CLint) at 1 µM in the series “in vitro [1]” came out at 26 µL/min/mg; in the series “in vitro [2]” it was 17 µL/min/mg; in “in vitro [3]” it was 64 µL/min/mg.
The corresponding values for `Cn1cc(-c2ccc(-c3cnc(N)c4ccc(C(=O)N5CC(F)(F)C5)cc34)cc2)cn1` [Compound 61] are 3.8, 39.7 × 10^–6 cm/s, 78 µL/min/mg, 17 µL/min/mg and 123 µL/min/mg.
The corresponding values for `Cn1cc(-c2ccc(-c3cnc(N)c4ccc(C(=O)N5CC(C)(F)C5)cc34)cc2)cn1` [Compound 62] are 3.4, 25.8 × 10^–6 cm/s, 43 µL/min/mg, 28 µL/min/mg and 76 µL/min/mg.
Consider `Cn1cc(-c2ccc(-c3cnc(N)c4ccc(C(=O)NC5CC5)cc34)cc2)cn1` [Compound 64], for which the “Caco-2 ER” value in the series with Caco-2 is 13.2. Moreover, the “Caco-2 PappA-B” value in the series on Caco-2 is 32.5 × 10^–6 cm/s. Besides, at aldehyde oxidase, the “AO substrate (Enzyme assay)” value is reported as “No”. Moreover, the intrinsic clearance (microsomal CLint) at 1 µM in the series “in vitro [1]” amounted to 39 µL/min/mg; in “in vitro [2]”, 22 µL/min/mg; in the series “in vitro [3]” it was 16 µL/min/mg.
For `Cn1cc(-c2ccc(-c3cnc(N)c4ccc(N5CCOC5=O)cc34)cc2)cn1` [Compound 65], in the series with Caco-2, the “Caco-2 ER” value is listed as 16.2. The “Caco-2 PappA-B” value in the series with Caco-2 was 20.6 × 10^–6 cm/s. Moreover, the “AO substrate (Enzyme assay)” value on aldehyde oxidase is listed as “No”. Further, the intrinsic metabolic clearance (microsomal CLint) at 1 µM in “in vitro [1]” amounted to 66 µL/min/mg; in “in vitro [2]”, 19 µL/min/mg; in the series “in vitro [3]”, 14 µL/min/mg.
